# Results from patent US20080220416A1, “Compositions for Inhibiting Cell Growth and Inducing Apoptosis in Cancer Cells and Methods of Use Thereof” (THE BOARD OF TRUSTEES OF THE UNIVERSITY OF ILLINOI, priority 2004, published 2008).
# Square brackets hold non-standard residues; d marks the D form. Peptide text beside a SMILES is read from it. * marks the point of attachment. Nle = CCCC[C@H](N)C(=O)O; Cbz = O=C(OCc1ccccc1)*
# How the values were obtained:
# [1] = test system: CaSki human cervical cancer cells; test: Cell growth inhibition assay in CaSki cervical cancer cells (crystal violet); type: cell-based
# Method: The cell growth inhibition assay was performed in a 96-well plate format. Inhibition was assessed by monitoring the protein content in each well using the crystal violet staining method as described by Skehan et al., 1990, J Natl Cancer Inst 82:1107-1112 and Prochaska et al., 1988, Anal Biochem 169:328-336. Briefly, cells were plated at a density of 2×10^4 cells/ml in 200 μl of DMEM supplemented with 10% FBS. The cells were transfected with siRNAs ([…] siRNA oligos/well) using Oligofectamine Transfection Reagents (InVitrogen) according to manufacturer's instructions. Twenty-four hours post-transfection, the media was decanted, 190 μl of fresh media was added to each well, and 10 μl of cisplatin (4 mM) dissolved in 10% DMSO was added to the wells as a series 2-fold dilutions (final concentration of cisplatin in the wells ranged from 0.5-200 μM). The cells were incubated with cisplatin for 48 hrs, the media was decanted, and the cells were submerged with 200 μl of 0.2% crystal violet in 2% ethanol for 10 min. The plates were rinsed for 2 min with tap water. The bound dye was solublized by incubation at 37° C. for 1 h with 200 μl of 0.5% sodium dedecyl sulfate in 50% ethanol. The plates were then scanned with an ELISA reader at 562 nm. The percentage cell growth inhibition mediated by cisplatin was calculated as: % inhibition=[1-(OD of cisplatin-treated cells/OD DMSO-treated control cells)]×100/100.
# CaSki human cervical cancer cells treated for 48 hrs with z-Leu-Leu-Nle-CHO alone were tested for cell growth inhibition. The cell growth inhibition assay was performed in a 96-well plate format. Inhibition was assessed by monitoring the protein content in each well using the crystal violet staining method Skehan, P. et al., 1990, J Natl Cancer Inst 82:1107-1112. Briefly, cells were plated at a density of 2×10^4 cells/ml in 200 μl of DMEM supplemented with 10% FBS. After pre-incubation period of 24 h, the media was decanted, 190 μl of fresh media was added to each well, and 10 μl (150 μM) of z-Leu-Leu-Nle-CHO dissolved in 10% DMSO was added to the wells as a series 2-fold dilutions (final concentration of cisplatin in the wells ranged from 0.05-7.5 μM). The cells were incubated with z-Leu-Leu-Nle-CHO for 48 hrs, the media was decanted, and the cells were submerged with 200 μl of 0.2% crystal violet in 2% ethanol for 10 min. The plates were rinsed for 2 min with tap water. The bound dye was solublized by incubation at 37° C. for 1 h with 200 μl of 0.5% sodium dedecyl sulfate in 50% ethanol. The plates were then scanned with an ELISA reader at 562 nm. The percentage cell growth inhibition mediated by test agents was calculated as: % inhibition=[1-(OD of z-Leu-Leu-Nle-CHO-treated cells/OD DMSO-treated control cells)]×100/100.
# To determine whether z-Leu-Leu-Nle-CHO treatment potentiates the effect of cisplatin on human […] cancer cells, the CaSki cells were treated for 48 h with 0.1-0.8 μM z-Leu-Leu-Nle-CHO and various concentrations of cisplatin (2-fold dilutions of a cisplatin solution to produce final concentrations of 1.6-200 μM cisplatin). Following the z-Leu-Leu-Nle-CHO and cisplatin treatment, the cells were tested for growth inhibition as described above.
# Isobologram analysis was performed by measuring the IC50 values of cisplatin in the presence of various concentrations of z-Leu-Leu-Nle-CHO. These IC50 values were plotted with SigmaPlot, and a straight line was traced between the IC50 values of cells treated with either cisplatin or z-Leu-Leu-Nle-CHO alone.
# [2] = test system: normal melanocytes; test: Proteasome inhibitors, apoptosis of normal melanocyte cultures (Annexin V FITC flow cytometry); type: cell-based, human
# Method: The proteasome inhibitors lactacystin, MG-132, and bortezomib were evaluated for the ability to induce apoptosis in malignant melanoma cell lines (n=3) including an early passage line, RJ002L. MG-132 was obtained from Calbiochem (La Jolla, Calif.) and dissolved in DMSO. Lactacystin was purchased from Sigma Chemical Co. (St. Louis, Mo.) and dissolved in PBS. Bortezomib was obtained from a pharmacy as VELCADE (bortezomib) for Injection from a single use vial for intravenous use only (Millennium Pharmaceuticals, Cambridge, Mass.). A cell line with wild-type p53 (RJ002L) and two melanoma cell lines with mutant p53 alleles (C8161 and MUM2B) were included in this study. Two additional melanoma cell lines were also used: cutaneous SK-MeI-28 cells and primary, early passage MG012 cells. In addition, five normal melanocyte culture cell lines (MC-005, MC-006, MC-008, MC-009 and MC-011) were examined. Prior to testing, the melanoma cell lines were maintained in RPMI supplemented with 10% FBS. Normal human melanocytes were isolated from neonatal foreskins as previously described (Qin J et al., 2004, Mol Cancer Ther 3:895-902, 2004) and cultured with medium 154 containing growth supplements (Cascade Biologics, Portland, Oreg.).
# To assess the effect of proteasome inhibitors on the cell lines, the cells were grown in suitable culture media as described above. […]
# Following treatment with the proteasome inhibitors, the melanoma and melanocyte cell cultures were assayed for apoptotic cells using the APO TARGET Annexin V FITC staining kit (Biosource, Camarillo, Calif.) according to the manufacturer's instructions followed by flow cytometric analysis using FACScaliber (Becton Dickinson, Palo Alto, Calif.) as described in Qin, J. et al., 2001, Nat Med 7: 385-386. In some cases, cell cycle and apoptosis analysis was measured using propidium iodide staining and flow cytometry as described. […] For cell analysis, DNA histograms were analyzed using MultiCycle for Windows (Phoenix Flow Systems, San Diego, Calif.) as described in Denning, M. F. et al., 1998, J Biol Chem 273: 29995-30002.
molecule,measurement,setting,value
5′-AAGTGTCTGAGGCCAGCAAGA-3′ [Notch-1 siRNA],effect on cytotoxicity of cisplatin,[1]; siRNA 24 h before cisplatin,strikingly potentiated the cytotoxicity of cisplatin
"CCCC[C@@H](C=O)NC(=O)[C@H](CC(C)C)NC(=O)[C@H](CC(C)C)NC(=O)OCc1ccccc1 [z-Leu-Leu-Nle-CHO, N-benzyloxycarbonyl-leucyl-leucyl-norleucinal] (Cbz-Leu-Leu-[Nle]-aldehyde)",effect on cisplatin cell growth inhibition,"[1]; 0.1-0.8 μM, doses lower than IC50, 48 h",potentiated the effects of cisplatin
same,IC50,"[1]; Homo sapiens, Ca-Ski, alone, 48 hrs, read-out: IC50, cell growth inhibition",640 nM
same,isobologram analysis with cisplatin,[1]; especially at low cisplatin concentrations (1-50 μM),moderate synergism
"CC(C)C[C@H](NC(=O)[C@H](Cc1ccccc1)NC(=O)c1cnccn1)B(O)O [bortezomib, N-(2-pyrazine)carbonyl-L-phenylalanine-L-leucine boronic acid]",apoptotic response,"[2]; MC009 and MC011, 0.01 to 10 μM, 24 hrs continuous exposure",less than 10%
"CC(C)C[C@@H](C=O)NC(=O)[C@H](CC(C)C)NC(=O)[C@H](CC(C)C)NC(=O)OCc1ccccc1 [MG-132, benzoxycarbonyl-Leucyl-Leucyl-Leucyl-aldehyde] (Cbz-Leu-Leu-Leu-aldehyde)",cells undergoing apoptosis,"[2]; MC-005, MC-006, MC-008, 24 hrs, 1, 5 or 10 μM",No more than 10%
